From patent EP2857388A1, “Azoles containing sulfone” (Grünenthal GmbH, priority 2013, dated 2015)

Each compound was assayed against T1, human B1R (Homo sapiens, UniProt P46663) (assay: Functional assay at bradykinin receptor 1 (B1R): Ca2+ fluorescence (Fluo-4) in FLIPR/Novostar, antagonist mode). Details: test substance 10 µM; CHO K1 cells stably transfected with human B1R gene (hB1R-Zellen); agonist Lys-Des-Arg9-Bradykinin at EC80; % inhibition relative to maximal achievable inhibition; read-out: % Inhibierung (human B1R) bei 10 µM.
T1 construct: expressed in transfected cells; host or cells: CHO K1 cells (Chinese Hamster Ovary), stably transfected
T1 sequence (P46663 1-353): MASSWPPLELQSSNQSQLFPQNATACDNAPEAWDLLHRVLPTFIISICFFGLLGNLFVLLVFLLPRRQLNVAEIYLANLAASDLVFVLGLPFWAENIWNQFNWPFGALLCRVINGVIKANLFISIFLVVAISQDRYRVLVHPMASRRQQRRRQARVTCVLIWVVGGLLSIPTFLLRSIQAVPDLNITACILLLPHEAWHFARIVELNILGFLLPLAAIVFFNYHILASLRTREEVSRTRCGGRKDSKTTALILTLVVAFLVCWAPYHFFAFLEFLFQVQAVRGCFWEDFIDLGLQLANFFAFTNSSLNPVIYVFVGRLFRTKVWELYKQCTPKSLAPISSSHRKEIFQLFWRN
Format: cell-based
Method in brief: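 CHO K1 cells stably expressing human B1R were loaded with Fluo-4 and preincubated 6–20 min with test compound before Lys-Des-Arg9-bradykinin at its EC80. Peak fluorescence (ex 488/em 540 nm) gave % inhibition versus maximal inhibition; IC50 from several concentrations, n=2 or 3.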

Point of comparison: `Cc1cccc(Cl)c1S(=O)(=O)Cc1noc(CC(=O)NC2CCC(N3CCN(C)CC3)CC2(C)C)n1` (stereo not shown) [CC-98, 2-[3-[[(2-Chlor-6-methyl-phenyl)sulfonyl]-methyl]-[1,2,4]oxadiazol-5-yl]-N-[2,2-dimethyl-4-(4-methyl-piperazin-1-yl)-cyclohexyl]-acetamid], inhibition at 10 µM 100%. Against it:
- Cc1cc(S(=O)(=O)Cc2noc(CC(=O)N(C)C3CCNCC3(C)C)n2)c(C)cc1Cl (stereo not shown) [CC-100, 2-[3-[[(4-Chlor-2,5-dimethyl-phenyl)sulfonyl]-methyl]-[1,2,4]oxadiazol-5-yl]-N-(3,3-dimethyl-piperidin-4-yl)-N-methyl-acetamid] — lower, 58%
- COc1cc(C)c(S(=O)(=O)Cc2nc(CC(=O)N(C)C3CCNCC3(C)C)no2)c(C)c1 (stereo not shown) [CC-101, N-(3,3-Dimethyl-piperidin-4-yl)-2-[5-[[(4-methoxy-2,6-dimethyl-phenyl)sulfonyl]-methyl]-[1,2,4]oxadiazol-3-yl]-N-methyl-acetamid] — the same, 100%
- COc1cc(C)c(S(=O)(=O)Cc2nc(CC(=O)NC3CCN(C)CC3(C)C)no2)c(C)c1 (stereo not shown) [CC-102, 2-[5-[[(4-Methoxy-2,6-dimethyl-phenyl)sulfonyl]-methyl]-[1,2,4]oxadiazol-3-yl]-N-(1,3,3-trimethyl-piperidin-4-yl)-acetamid] — the same, 100%
- Cc1cc(S(=O)(=O)Cc2noc(CC(=O)NC3CCN(C)CC3(C)C)n2)c(C)cc1Cl (stereo not shown) [CC-105, 2-[3-[[(4-Chlor-2,5-dimethyl-phenyl)sulfonyl]-methyl]-[1,2,4]oxadiazol-5-yl]-N-(1,3,3-trimethyl-piperidin-4-yl)-acetamid] — lower, 88%
- CC1(C)CC(N2CCCC2)CCC1NC(=O)Cc1nc(CS(=O)(=O)c2cccc(Cl)c2Cl)no1 (stereo not shown) [CC-106, 2-[3-[[(2,3-Dichlor-phenyl)sulfonyl]-methyl]-[1,2,4]oxadiazol-5-yl]-N-(2,2-dimethyl-4-pyrrolidin-1-yl-cyclohexyl)-acetamid] — lower, 82%
- Cc1cccc(Cl)c1S(=O)(=O)Cc1noc(CC(=O)N(C2CCC(N(C)C)CC2)C2CC2)n1 (stereo not shown) [CC-108, 2-[3-[[(2-Chlor-6-methyl-phenyl)sulfonyl]-methyl]-[1,2,4]oxadiazol-5-yl]-N-cyclopropyl-N-(4-dimethylamino-cyclohexyl)-acetamid] — lower, 88%
- CC1(C)CC(c2ccncc2)CCC1NC(=O)Cc1nc(CS(=O)(=O)c2cccc(Cl)c2Cl)no1 (stereo not shown) [CC-109, 2-[3-[[(2,3-Dichlor-phenyl)sulfonyl]-methyl]-[1,2,4]oxadiazol-5-yl]-N-(2,2-dimethyl-4-pyridin-4-yl-cyclohexyl)-acetamid] — the same, 100%
- Cc1cccc(Cl)c1S(=O)(=O)Cc1noc(CC(=O)N(C)C2CCNCC2(C)C)n1 (stereo not shown) [CC-110, 2-[3-[[(2-Chlor-6-methyl-phenyl)sulfonyl]-methyl]-[1,2,4]oxadiazol-5-yl]-N-(3,3-dimethyl-piperidin-4-yl)-N-methyl-acetamid] — lower, 87%
- COc1cc(C)c(S(=O)(=O)Cc2nnc(CC(=O)NC3CCN(C)CC3(C)C)o2)c(C)c1 (stereo not shown) [CC-111, 2-[5-[[(4-Methoxy-2,6-dimethyl-phenyl)sulfonyl]-methyl]-[1,3,4]oxadiazol-2-yl]-N-(1,3,3-trimethyl-piperidin-4-yl)-acetamid] — the same, 100%
- CN(C)C1CCC(N(C(=O)Cc2nc(CS(=O)(=O)c3cccc(Cl)c3Cl)no2)C2CC2)CC1 (stereo not shown) [CC-112, N-Cyclopropyl-2-[3-[[(2,3-dichlor-phenyl)sulfonyl]-methyl]-[1,2,4]oxadiazol-5-yl]-N-(4-dimethyl-amino-cyclohexyl)-acetamid] — lower, 67%
- COc1cc(C)c(S(=O)(=O)Cc2nc(CC(=O)N(C3CCC(N(C)C)CC3)C3CC3)no2)c(C)c1 (stereo not shown) [CC-116, N-Cyclopropyl-N-(4-dimethylamino-cyclohexyl)-2-[5-[[(4-methoxy-2,6-dimethyl-phenyl)sulfonyl]-methyl]-[1,2,4]oxadiazol-3-yl]-acetamid] — the same, 100%
- COc1cc(C)c(S(=O)(=O)Cc2c(C)nn(CC(=O)N(C3CCC(N(C)C)CC3)C3CC3)c2C)c(C)c1 (stereo not shown) [CC-118, N-Cyclopropyl-N-(4-dimethylamino-cyclohexyl)-2-[4-[[(4-methoxy-2,6-dimethyl-phenyl)sulfonyl]-methyl]-3,5-dimethyl-1H-pyrazol-1-yl]-acetamid] — lower, 93%
- COc1cc(C)c(S(=O)(=O)Cc2nnc(CC(=O)N(C3CCC(N(C)C)CC3)C3CC3)o2)c(C)c1 (stereo not shown) [CC-124, N-Cyclopropyl-N-(4-dimethylamino-cyclohexyl)-2-[5-[[(4-methoxy-2,6-dimethyl-phenyl)sulfonyl]-methyl]-[1,3,4]oxadiazol-2-yl]-acetamid] — the same, 100%
- COc1cc(C)c(S(=O)(=O)Cc2cc(C)n(CC(=O)NC3CCC(c4ccncc4)CC3(C)C)n2)c(C)c1 (stereo not shown) [CC-127, N-(2,2-Dimethyl-4-pyridin-4-yl-cyclohexyl)-2-[3-[[(4-methoxy-2,6-dimethyl-phenyl)sulfonyl)-methyl]-5-methyl-1 H-pyrazol-1-yl]-acetamid] — lower, 68%
- COc1cc(C)c(S(=O)(=O)Cc2noc(C(=O)N3CCC(N4CCN(C)CC4)CC3)n2)c(C)c1 [CC-129, [3-[[(4-Methoxy-2,6-dimethyl-phenyl)sulfonyl]-methyl]-[1,2,4]oxadiazol-5-yl]-[4-(4-methyl-piperazin-1-yl)-piperidin-1-yl]-methanon] — the same, 100%
- COc1cc(C)c(S(=O)(=O)Cc2noc(CC(=O)N3CCC4(CCN(C)C4)C3)n2)c(C)c1 (stereo not shown) [CC-130, 2-[3-[[(4-Methoxy-2,6-dimethyl-phenyl)sulfonyl]-methyl]-[1,2,4]oxadiazol-5-yl]-1-(2-methyl-2,8-diazaspiro[4.4]nonan-8-yl)-ethanon] — lower, 99%
- COc1cc(C)c(S(=O)(=O)Cc2noc(CC(=O)N3CCC(N4CCN(C)CC4)CC3)n2)c(C)c1 [CC-131, 2-[3-[[(4-Methoxy-2,6-dimethyl-phenyl)sulfonyl]-methyl]-[1,2,4]oxadiazol-5-yl]-1-[4-(4-methyl-piperazin-1-yl)-piperidin-1-yl]-ethanon] — the same, 100%
- COc1cc(C)c(S(=O)(=O)Cc2noc(CC(=O)N3CCN(c4ccncc4)CC3)n2)c(C)c1 [CC-133, 2-[3-[[(4-Methoxy-2,6-dimethyl-phenyl)sulfonyl]-methyl]-[1,2,4]oxadiazol-5-yl]-1-(4-pyridin-4-yl-piperazin-1-yl)-ethanon] — the same, 100%
- COc1cc(C)c(S(=O)(=O)Cc2noc(CC(=O)N3CCC4(CC3)CCN(c3ccncc3)C4)n2)c(C)c1 [CC-134, 2-[3-[[(4-Methoxy-2,6-dimethyl-phenyl)sulfonyl]-methyl]-[1,2,4]oxadiazol-5-yl]-1-(3-pyridin-4-yl-3,8-diazaspiro[4.5]decan-8-yl)-ethanon] — the same, 100%
- COc1cc(C)c(S(=O)(=O)Cc2noc(CC(=O)N3[C@@H]4CC[C@H]3CC(Oc3ccncc3)C4)n2)c(C)c1 (stereo partly drawn) [CC-135, 2-[3-[[(4-Methoxy-2,6-dimethyl-phenyl)sulfonyl]-methyl]-[1,2,4]oxadiazol-5-yl]-1-[(1S, 5R)-3-pyridin-4-yloxy-8-azabicyclo[3.2.1]octan-8-yl]-ethanon] — lower, 98%
- COc1cc(C)c(S(=O)(=O)Cc2noc(C(=O)N3CCN(c4ccncc4)CC3)n2)c(C)c1 [CC-136, [3-[[(4-Methoxy-2,6-dimethyl-phenyl)sulfonyl]-methyl]-[1,2,4]oxadiazol-5-yl]-(4-pyridin-4-yl-piperazin-1-yl)-methanon] — the same, 100%
- Cc1cccc(Cl)c1S(=O)(=O)Cc1noc(C(=O)N2CCN(c3ccncc3)CC2)n1 [CC-137, [3-[[(2-Chlor-6-methyl-phenyl)sulfonyl]-methyl]-[1,2,4]oxadiazol-5-yl]-(4-pyridin-4-yl-piperazin-1-yl)-methanon] — lower, 99%
- Cc1cccc(Cl)c1S(=O)(=O)Cc1noc(C(=O)N2CCC(N3CCN(C)CC3)CC2)n1 [CC-138, [3-[[(2-Chlor-6-methyl-phenyl)sulfonyl]-methyl]-[1,2,4]oxadiazol-5-yl]-[4-(4-methyl-piperazin-1-yl)-piperidin-1-yl]-methanon] — lower, 95%
- COc1cc(C)c(S(=O)(=O)Cc2noc(C(=O)N3CCC4(CC3)CCN(c3ccncc3)C4)n2)c(C)c1 [CC-139, [3-[[(4-Methoxy-2,6-dimethyl-phenyl)sulfonyl]-methyl]-[1,2,4]oxadiazol-5-yl]-(3-pyridin-4-yl-3,8-diazaspiro[4.5]decan-8-yl)-methanon] — the same, 100%
- Cc1cc(S(=O)(=O)Cc2noc(C(=O)N3CCC(N4CCN(C)CC4)CC3)n2)c(C)cc1Cl [CC-141, [3-[[(4-Chlor-2,5-dimethyl-phenyl)sulfonyl]-methyl]-[1,2,4]oxadiazol-5-yl]-[4-(4-methyl-piperazin-1-yl)-piperidin-1-yl]-methanon] — lower, 99%
- Cc1cc(S(=O)(=O)Cc2noc(C(=O)N3CCC4(CCN(C)C4)C3)n2)c(C)cc1Cl (stereo not shown) [CC-142, [3-[[(4-Chlor-2,5-dimethyl-phenyl)sulfonyl]-methyl]-[1,2,4]oxadiazol-5-yl]-(2-methyl-2,8-diaza-spiro[4.4]nonan-8-yl)-methanon] — lower, 99%
- Cc1cccc(Cl)c1S(=O)(=O)Cc1noc(C(=O)N2CCC3(CCN(C)C3)C2)n1 (stereo not shown) [CC-143, [3-[[(2-Chlor-6-methyl-phenyl)sulfonyl]-methyl]-[1,2,4]oxadiazol-5-yl]-(2-methyl-2,8-diazaspiro-[4.4]nonan-8-yl)-methanon] — lower, 82%
